Measured values taken from patent publication US12459922B2 (Gilead Sciences, Inc., priority 2022, dated 2025).

Each molecule was assayed on endogenous cellular STAT1 (phosphorylated at Tyr701) in NCI-H1373 cells (assay: Phospho-STAT1 (Tyr701) LANCE Ultra TR-FRET Detection Assay). Details: 48 hours, phospho-STAT1 (Tyr701) induction, read-out: NH1373 pSTAT1 EC50.
Type: cell-based

| EC50 | Compound |
| --- | --- |
| 16.7 nM | C[C@@H](CCCn1ccc2cc(-c3ncc(C(F)(F)F)c(N)n3)c(F)cc2c1=O)Nc1cn[nH]c(=O)c1C(F)(F)F [Example 128, (S)-6-(4-amino-5-(trifluoromethyl)pyrimidin-2-yl)-7-fluoro-2-(4-((6-oxo-5-(trifluoromethyl)-1,6-dihydropyridazin-4-yl)amino)pentyl)isoquinolin-1(2H)-one] |

Same assay, conditions: Homo sapiens, 48 hours, phospho-STAT1 (Tyr701) induction, read-out: NH1373 pSTAT1 EC50

| Compound | EC50 |
| --- | --- |
| O=c1[nH]ncc(N2CCCN2CCCn2ccc3cc(-c4ncc(C(F)(F)F)cn4)c(F)cc3c2=O)c1C(F)(F)F [Example 154, 7-fluoro-2-[3-[2-[6-oxo-5-(trifluoromethyl)-1H-pyridazin-4-yl]pyrazolidin-1-yl]propyl]-6-[5-(trifluoromethyl)pyrimidin-2-yl]isoquinolin-1-one] | 115 nM |

Same assay, conditions: Homo sapiens, NCI-H1373, 48 h, phospho-STAT1 (Tyr701) induction, read-out: NH1373 pSTAT1 EC50

| EC50 | Compound |
| --- | --- |
| 1290 nM | C[C@@H](CCCn1cnc2cc(-c3ncc(S(C)(=O)=O)cn3)c(F)cc2c1=O)Nc1cn[nH]c(=O)c1C(F)(F)F [Example 126, (S)-6-fluoro-7-(5-(methylsulfonyl)pyrimidin-2-yl)-3-(4-((6-oxo-5-(trifluoromethyl)-1,6-dihydropyridazin-4-yl)amino)pentyl)quinazolin-4(3H)-one] |
| 474 nM | C[C@@H](CCCn1cnc2cc(-c3ncc(OCCO)cn3)c(F)cc2c1=O)Nc1cn[nH]c(=O)c1C(F)(F)F [Example 127, (S)-6-fluoro-7-(5-(2-hydroxyethoxy)pyrimidin-2-yl)-3-(4-((6-oxo-5-(trifluoromethyl)-1,6-dihydropyridazin-4-yl)amino)pentyl)quinazolin-4(3H)-one] |
| 77.8 nM | C[C@@H](CCCn1ccc2cc(-c3ncc(OCCO)cn3)c(F)cc2c1=O)Nc1cn[nH]c(=O)c1C(F)(F)F [Example 129, (S)-7-fluoro-6-(5-(2-hydroxyethoxy)pyrimidin-2-yl)-2-(4-((6-oxo-5-(trifluoromethyl)-1,6-dihydropyridazin-4-yl)amino)pentyl)isoquinolin-1(2H)-one] |
| 1470 nM | O=c1[nH]ncc(NC[C@H]2C[C@H](Cn3ccc4cc(-c5ncc(C(F)(F)F)cn5)c(F)c(F)c4c3=O)C2)c1C(F)(F)F [Example 130, 7,8-difluoro-2-(((1R,3R)-3-(((6-oxo-5-(trifluoromethyl)-1,6-dihydropyridazin-4-yl)amino)methyl)cyclobutyl)methyl)-6-(5-(trifluoromethyl)pyrimidin-2-yl)isoquinolin-1(2H)-one] |
| 158 nM | C[C@@H](Nc1cn[nH]c(=O)c1C(F)(F)F)/C(F)=C/Cn1ccc2cc(-c3ncc(C(F)(F)F)cn3)c(F)c(F)c2c1=O [Example 131, (R,Z)-7,8-difluoro-2-(3-fluoro-4-((6-oxo-5-(trifluoromethyl)-1,6-dihydropyridazin-4-yl)amino)pent-2-en-1-yl)-6-(5-(trifluoromethyl)pyrimidin-2-yl)isoquinolin-1(2H)-one] |
| 3.47 nM | C[C@H](Nc1cn[nH]c(=O)c1C(F)(F)F)/C(F)=C/Cn1ccc2cc(-c3ncc(C(F)(F)F)cn3)c(F)c(F)c2c1=O [Example 132, (S,Z)-7,8-difluoro-2-(3-fluoro-4-((6-oxo-5-(trifluoromethyl)-1,6-dihydropyridazin-4-yl)amino)pent-2-en-1-yl)-6-(5-(trifluoromethyl)pyrimidin-2-yl)isoquinolin-1(2H)-one] |
| 2.83 nM | C[C@@H](/C=C/Cn1ccc2cc(-c3ncc(C(F)(F)F)cn3)c(F)c(F)c2c1=O)Nc1cn[nH]c(=O)c1C(F)(F)F [Example 133, (S,E)-7,8-difluoro-2-(4-((6-oxo-5-(trifluoromethyl)-1,6-dihydropyridazin-4-yl)amino)pent-2-en-1-yl)-6-(5-(trifluoromethyl)pyrimidin-2-yl)isoquinolin-1(2H)-one] |
| 5.19 nM | COc1cnc(-c2cc3ccn(C/C=C/[C@H](C)Nc4cn[nH]c(=O)c4C(F)(F)F)c(=O)c3cc2F)nc1N [Example 134, (S,E)-6-(4-amino-5-methoxypyrimidin-2-yl)-7-fluoro-2-(4-((6-oxo-5-(trifluoromethyl)-1,6-dihydropyridazin-4-yl)amino)pent-2-en-1-yl)isoquinolin-1(2H)-one] |
| 17.7 nM | COC[C@@H](CCCn1ccc2cc(-c3ncc(C(F)(F)F)cn3)c(F)cc2c1=O)Nc1cn[nH]c(=O)c1C(F)(F)F [Example 135, (R)-7-fluoro-2-(5-methoxy-4-((6-oxo-5-(trifluoromethyl)-1,6-dihydropyridazin-4-yl)amino)pentyl)-6-(5-(trifluoromethyl)pyrimidin-2-yl)isoquinolin-1(2H)-one] |
| 75.9 nM | CC(CCCn1ccc2cc(-c3ncc(C(F)(F)F)cn3)c(F)cc2c1=O)Oc1cn[nH]c(=O)c1C(F)(F)F (centres unmarked) [Example 136, 7-fluoro-2-[4-[[6-oxo-5-(trifluoromethyl)-1H-pyridazin-4-yl]oxy]pentyl]-6-[5-(trifluoromethyl)pyrimidin-2-yl]isoquinolin-1-one] |
| 50.6 nM | CC(C)(CCCn1ccc2cc(-c3ncc(C(F)(F)F)c(N)n3)c(F)cc2c1=O)Nc1cn[nH]c(=O)c1C(F)(F)F [Example 137, 6-(4-amino-5-(trifluoromethyl)pyrimidin-2-yl)-7-fluoro-2-(4-methyl-4-((6-oxo-5-(trifluoromethyl)-1,6-dihydropyridazin-4-yl)amino)pentyl)isoquinolin-1(2H)-one] |
| 55.5 nM | O=c1[nH]ncc(N2C[C@@H](O)C[C@H]2CCCn2ccc3cc(-c4ncc(C(F)(F)F)cn4)c(F)cc3c2=O)c1C(F)(F)F [Example 138, 7-fluoro-2-(3-((2R,4S)-4-hydroxy-1-(6-oxo-5-(trifluoromethyl)-1,6-dihydropyridazin-4-yl)pyrrolidin-2-yl)propyl)-6-(5-(trifluoromethyl)pyrimidin-2-yl)isoquinolin-1(2H)-one] |
| 64.8 nM | O=c1[nH]ncc(N2CC(F)(F)C[C@H]2CCCn2ccc3cc(-c4ncc(C(F)(F)F)cn4)c(F)cc3c2=O)c1C(F)(F)F [Example 139, 2-[3-[(2R)-4,4-difluoro-1-[6-oxo-5-(trifluoromethyl)-1H-pyridazin-4-yl]pyrrolidin-2-yl]propyl]-7-fluoro-6-[5-(trifluoromethyl)pyrimidin-2-yl]isoquinolin-1-one] |
| 585 nM | O=c1[nH]ncc(N2C[C@H](F)C[C@H]2CCCn2ccc3cc(-c4ncc(C(F)(F)F)cn4)c(F)cc3c2=O)c1C(F)(F)F [Example 140, 7-fluoro-2-[3-[(2R,4R)-4-fluoro-1-[6-oxo-5-(trifluoromethyl)-1H-pyridazin-4-yl]pyrrolidin-2-yl]propyl]-6-[5-(trifluoromethyl)pyrimidin-2-yl]isoquinolin-1-one] |
| 16.2 nM | O=c1[nH]ncc(N2C[C@@H](F)C[C@H]2CCCn2ccc3cc(-c4ncc(C(F)(F)F)cn4)c(F)cc3c2=O)c1C(F)(F)F [Example 141, 7-fluoro-2-[3-[(2R,4S)-4-fluoro-1-[6-oxo-5-(trifluoromethyl)-1H-pyridazin-4-yl]pyrrolidin-2-yl]propyl]-6-[5-(trifluoromethyl)pyrimidin-2-yl]isoquinolin-1-one] |
| 38.6 nM | O=c1[nH]ncc(N2CC3(CC3)C[C@H]2CCCn2ccc3cc(-c4ncc(C(F)(F)F)cn4)c(F)cc3c2=O)c1C(F)(F)F [Example 142, 7-fluoro-2-[3-[(6R)-5-[6-oxo-5-(trifluoromethyl)-1H-pyridazin-4-yl]-5-azaspiro[2.4]heptan-6-yl]propyl]-6-[5-(trifluoromethyl)pyrimidin-2-yl]isoquinolin-1-one] |
| 26.5 nM | Nc1nc(-c2cc3ccn(CCC[C@@H]4CC5(CC5)CN4c4cn[nH]c(=O)c4C(F)(F)F)c(=O)c3cc2F)ncc1C(F)F [Example 143, 6-[4-amino-5-(difluoromethyl)pyrimidin-2-yl]-7-fluoro-2-[3-[(6R)-5-[6-oxo-5-(trifluoromethyl)-1H-pyridazin-4-yl]-5-azaspiro[2.4]heptan-6-yl]propyl]isoquinolin-1-one] |
| 3.55 nM | Nc1nc(-c2cc3ccn(CCC[C@@H](Nc4cn[nH]c(=O)c4C(F)(F)F)C4CC4)c(=O)c3cc2F)ncc1C(F)(F)F [Example 144, 6-[4-amino-5-(trifluoromethyl)pyrimidin-2-yl]-2-[(4R)-4-cyclopropyl-4-[[6-oxo-5-(trifluoromethyl)-1H-pyridazin-4-yl]amino]butyl]-7-fluoro-isoquinolin-1-one] |
| 14.1 nM | N#Cc1cnc(-c2cc3ccn(CCC[C@@H](Nc4cn[nH]c(=O)c4C(F)(F)F)C4CC4)c(=O)c3cc2F)nc1N [Example 145, 4-amino-2-[2-[(4R)-4-cyclopropyl-4-[[6-oxo-5-(trifluoromethyl)-1H-pyridazin-4-yl]amino]butyl]-7-fluoro-1-oxoisoquinolin-6-yl]pyrimidine-5-carbonitrile] |
| 14.5 nM | COc1cnc(-c2cc3ccn(CCC[C@@H](Nc4cn[nH]c(=O)c4C(F)(F)F)C4CC4)c(=O)c3cc2F)nc1N [Example 146, 6-(4-amino-5-methoxypyrimidin-2-yl)-2-[(4R)-4-cyclopropyl-4-[[6-oxo-5-(trifluoromethyl)-1H-pyridazin-4-yl]amino]butyl]-7-fluoroisoquinolin-1-one] |
| 39.1 nM | Nc1nc(-c2cc3ccn(CCC[C@@H](Nc4cn[nH]c(=O)c4C(F)(F)F)C4CC4)c(=O)c3cc2F)ncc1C(F)F [Example 147] |
| 19.1 nM | O=c1[nH]ncc(N2CCC2CCCn2cnc3cc(-c4ncc(C(F)(F)F)cn4)c(F)cc3c2=O)c1C(F)(F)F (centres unmarked) [Example 150, 6-fluoro-3-[3-[1-[6-oxo-5-(trifluoromethyl)-1H-pyridazin-4-yl]azetidin-2-yl]propyl]-7-[5-(trifluoromethyl)pyrimidin-2-yl]quinazolin-4-one] |
| 10.9 nM | COc1cnc(-c2cc3ccn(CCCC4CCN4c4cn[nH]c(=O)c4C(F)(F)F)c(=O)c3cc2F)nc1N (centres unmarked) [Example 153, 6-(4-amino-5-methoxy-pyrimidin-2-yl)-7-fluoro-2-[3-[1-[6-oxo-5-(trifluoromethyl)-1H-pyridazin-4-yl]azetidin-2-yl]propyl]isoquinolin-1-one] |
| 22.7 nM | CC[C@@H](CCCn1cnc2cc(-c3ncc(Cl)cn3)c(F)cc2c1=O)Nc1cn[nH]c(=O)c1C(F)(F)F [Example 157, 7-(5-chloropyrimidin-2-yl)-6-fluoro-3-[(4S)-4-[[6-oxo-5-(trifluoromethyl)-1H-pyridazin-4-yl]amino]hexyl]quinazolin-4-one] |
